Tests used:
[1] = test system: BAC D2 striatopallidal medium spiny neurons; test: 2PLSM dendritic Ca2+ imaging on focal S1P application (functional Gpr6 receptors), BAC D2 neurons in brain slices; format: cell-based, mouse; details: for Percent increase in fluorescence (ΔG/R), median: S1P puff 10 μM
Source text: Gpr6 encodes a G protein-coupled receptor for the lysophospholipid sphingosine 1-phosphate (S1P) (A. Ignatov, J. Lintzel, H. J. Kreienkamp, H. C. Schaller, Biochem Biophys Res Commun 311, 329-36 (Nov. 14, 2003)). In heterologous expression systems, S1P activation of Gpr6 receptors induces the release of Ca2+ from intracellular stores. […] To determine whether functional Gpr6 receptors were selectively expressed in striatopallidal neurons, BAC D2 striatopallidal or BAC D1 striatonigral medium spiny neurons (expressing soluble eGFP) were identified in brain slices and patch clamped (FIG. 30) (M. Day et al., Nat Neurosci 9, 251-9 (February, 2006)). Neurons were loaded with Alexa 594 (50 μM) to allow dendrites to be seen and with Fluo-4 (200 μM) to monitor intracellular Ca2+ concentration using 2-photon laser scanning microscopy (2PLSM). After allowing the dyes to equilibrate, neurons were imaged and a second pipette containing S1P (10 μM) was brought into close physical proximity to a dendrite, 60-80 microns from the soma (a and b). […] Nairn, P. Greengard, J Neurochem 72, 2015-21 (May, 1999)) and/or inhibition of adenylyl cyclase type 5 (AC5; Adcy5) (C.
Striatonigral (BAC D1) or striatopallidal (BAC D2) neurons expressing soluble eGFP (S. Falcon, R. Person, Bioinformatics 23, 257-8 (2007)) in 275 μm thick corticostriatal slices were identified by somatic eGFP fluorescence. eGFP 2PLSM green signals (500-550 nm) were acquired from eGFP+ BAC Drd2 neurons using 810 nm excitation, while eGFP+ BAC Drd1 neurons required 900 nm excitation. eGFP+ MSNs were then patched using infrared-differential interference contrast (IR-DIC) video microscopy with a Hamamatsu C2400 Newvicon camera/controller system (Hamamatsu, Japan) and a 60X/0.9NA water-dipping lens. […] The pipette solution contained the following (in mM): 135 KMeSO4 (ICN Biomedicals Inc., Aurora, Ohio), 5 KCl, 10 HEPES, 2 MgATP, 0.2 Na2GTP, and 0.1 spermine, pH=7.25-7.3 with KOH, 270 mOsm/l. As measured in the bath, the pipette resistance was ˜4 MΩ. Seals were formed in voltage-clamp mode on the cell somas with series resistance >1 GΩ. After seal rupture in whole-cell configuration the series-resistance decreased to 10-15 MΩ. […] The thapsigargin was initially dissolved in DMSO at a concentration of 10 mM. This stock was then diluted 1000× in the internal recording solution. Following break in, the internal solution was allowed to approach diffusional equilibrium for at least 15 min prior to imaging. The cells were voltage clamped at −70 mV and monitored for somatic depolarization.
For the duration of the recordings, 2PLSM green and red signals (570-620 nm) were acquired using 810 nm excitation with 90 MHz pulse repetition frequency and ˜250 fs pulse duration at the sample plane.

[2] = test system: BAC D1 striatonigral medium spiny neurons; test: 2PLSM dendritic Ca2+ imaging on focal S1P application, BAC D1 neurons in brain slices; format: cell-based, mouse; details: S1P puff 10 μM, n=4
Source text: Gpr6 encodes a G protein-coupled receptor for the lysophospholipid sphingosine 1-phosphate (S1P) (A. Ignatov, J. Lintzel, H. J. Kreienkamp, H. C. Schaller, Biochem Biophys Res Commun 311, 329-36 (Nov. 14, 2003)). In heterologous expression systems, S1P activation of Gpr6 receptors induces the release of Ca2+ from intracellular stores. […] To determine whether functional Gpr6 receptors were selectively expressed in striatopallidal neurons, BAC D2 striatopallidal or BAC D1 striatonigral medium spiny neurons (expressing soluble eGFP) were identified in brain slices and patch clamped (FIG. 30) (M. Day et al., Nat Neurosci 9, 251-9 (February, 2006)). […]
Striatonigral (BAC D1) or striatopallidal (BAC D2) neurons expressing soluble eGFP (S. Falcon, R. Person, Bioinformatics 23, 257-8 (2007)) in 275 μm thick corticostriatal slices were identified by somatic eGFP fluorescence. eGFP 2PLSM green signals (500-550 nm) were acquired from eGFP+ BAC Drd2 neurons using 810 nm excitation, while eGFP+ BAC Drd1 neurons required 900 nm excitation. eGFP+ MSNs were then patched using infrared-differential interference contrast (IR-DIC) video microscopy with a Hamamatsu C2400 Newvicon camera/controller system (Hamamatsu, Japan) and a 60X/0.9NA water-dipping lens. […] As measured in the bath, the pipette resistance was ˜4 MΩ. […] The cells were voltage clamped at −70 mV and monitored for somatic depolarization. […]

DARPP-32 = test: Threonine 34 DARPP-32 phosphorylation after S1P treatment of striatal slices; format: cell-based; details: 5 minutes after S1P addition, 1.04±0.17 at 0 minutes, n=12
[3] = test system: GABAA receptor mIPSCs in BAC D1 striatonigral neurons; test: Whole-cell voltage-clamp GABAergic mIPSC recording after 15-day cocaine treatment, BAC D1 neurons
[4] = test system: GABAA receptor mIPSCs in BAC D2 striatopallidal neurons; test: Whole-cell voltage-clamp GABAergic mIPSC recording after 15-day cocaine treatment, BAC D2 neurons; format: in vivo, mouse; details: cocaine 15 days
[5] = test system: Ferritin heavy chain mRNA (Fth1); details: 100 μg/ml ferric ammonium citrate, 36 hours, HEK293T
Experimental: Rapid immunoaffinity purification of polysomes was achieved from HEK293T cells transiently transfected with the eGFP-L10a transgene but not mock transfected cells. HEK293T cells transfected with eGFP-L10a were homogenized in lysis buffer. The solubilized and clarified lysate was loaded onto a linear density (20-50% w/w) gradient of sucrose and centrifuged for 2 hours at 4° C. using a Beckman SW41 rotor at 40,000 r. p. m. (200,000×g). 750 μl fractions were collected as absorbance at 254 nm was monitored with an ISCO UA-6 UV detector.
HEK293T cells were transiently transfected (˜30% efficiency) with eGFP (mock) or eGFP-L10a constructs and grown in medium alone (no treatment, NT) or in medium supplemented with 100 μg/ml ferric ammonium citrate [pH 7.0] (iron) for 36 hours. […] (b) The post-mitochondrial supernatants of untreated or iron-treated cells were loaded onto linear sucrose gradients (20-50% w/w). After velocity sedimentation, fractions (direction of sedimentation noted by arrow) were collected while UV absorbance (254 nm) was being measured. […] Non-polysome and polysome gradient fractions were generated as indicated. To avoid Ferritin mRNAs associated with mRNPs, only heavier polysomes (with greater than 4 ribosomes) were included in the polysome fraction. […] (e) To determine if the translating ribosome affinity purification (TRAP) methodology could faithfully reflect the changes observed in c, a direct eGFP immunoprecipitation of post-mitochondrial supernatants (whole cell lysates, unfractionated) was performed.
In some experiments, 20 ng of purified RNA was used to produce cDNA with a NuGEN WT Ovation kit (NuGEN Technologies, San Carlos, Calif.) and the resulting cDNA was purified and quantified. 10 ng of cDNA was used for each real-time gene expression assay. Applied Biosystems (Foster City, Calif.) TaqMan pre-designed gene expression assays were used, following the manufacturer's instructions and using an Applied Biosystems 7900 Sequence Detection System.
Table 10). To provide an initial test of the data, quantitative PCR studies were carried out using independent biological BACarray D1 and D2 samples and a different cDNA amplification procedure (A. Alexa, J. Rahnenfuhrer, T. Lengauer, Bioinformatics 22, 1600-7 (2006)).

[6] = iron treatment, range from replicates

CCCCCCCCCCCCC/C=C/[C@@H](O)[C@@H](N)COP(=O)(O)O [S1P, sphingosine 1-phosphate]
Percent increase in fluorescence (ΔG/R), median ([1]; BAC D2 medium spiny neurons, n=6): 146% | Percent increase in fluorescence (ΔG/R), median ([1]; thapsigargin loaded BAC D2 medium spiny neurons, n=4): 4% | dendritic Ca2+ levels ([1]; focal application of S1P 10 μM, clamped at −70 mV, BAC D2): consistently and reversibly increased | Percent increase in fluorescence (ΔG/R), median [2]: 17% | threonine 34 DARPP-32 phosphorylation (DARPP-32): 0.58 normalized units

COC(=O)[C@H]1[C@@H](OC(=O)c2ccccc2)C[C@@H]2CC[C@H]1N2C [cocaine]
mIPSC frequency, median ([3]; cocaine 20 mg/kg/day 15 days, saline median 0.82 Hz): 1.03 Hz | mean 10-90% rise times of mIPSCs ([3]; cocaine 15 days, saline 0.64±0.008): 0.65±0.006 | mean number of channels per synapse (N) ([3]; cocaine 15 days, saline 33.1±1.4): 29.3±1.0 | number of small amplitude mIPSCs (<75 pA) in equal length records (7 min) ([3]; cocaine 15 days, saline 79.4±8.2): 104.2±6.3 | GABAA receptors (N) per synapse, representative variance-mean current plot ([3]; cocaine 15 days, saline N=33): 27 | unitary receptor conductance (g), representative variance-mean current plot ([3]; cocaine 15 days, saline g=31 pS): 30 pS | mean 10-90% rise times of mIPSCs ([4]; saline 0.65±0.007): 0.64±0.010 | mean mIPSC frequency ([4]; saline 0.72±0.05 Hz): 0.78±0.07 Hz | mean number of channels per synapse (N) ([4]; saline 33.8±2.7): 33.0±1.6 | number of small amplitude mIPSCs (<75 pA) in equal length records (7 min) ([4]; saline 68.1±9.7): 71.7±7.5 | number of receptors per synapse (N), representative variance-mean current plot ([4]; saline N=29): 31 | unitary receptor conductance (g), representative variance-mean current plot ([4]; saline g=33 pS): 29 pS

C/C=C(/C)C(=O)O[C@H]1C(C)=C2[C@H]([C@@H]1OC(=O)CCCCCCC)[C@@](C)(OC(C)=O)C[C@H](OC(=O)CCC)[C@@]1(O)[C@H]2OC(=O)[C@@]1(C)O [thapsigargin]
response to S1P in BAC D2 striatopallidal neurons ([1]; thapsigargin 10 μM in pipette, depletion of intracellular Ca2+ stores): abolished

ferric ammonium citrate [iron]
iron-induced fold-change in Fth1 mRNA levels relative to Actb mRNA, polysome IP samples ([5]; IP from polysomes): 2.01-2.43 | iron-induced fold-change in Fth1 mRNA levels relative to Actb mRNA, direct IP samples ([5]; IP from whole cell lysates): 1.80-1.93 | range of fold-change of Fth1 mRNA in non-polysome fraction [5, 6]: 0.16-0.22 | range of fold-change of Fth1 mRNA in polysome fraction [5, 6]: 1.83-2.15

— US10947546B2, “Methods and compositions for translational profiling and molecular phenotyping” (The Rockefeller University, priority 2008, dated 2021)
